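Assay format: 96-well plates, 48-hour exposure. Here, GI50 denotes the concentration required for 50% inhibition of growth. TGI marks complete inhibition of growth.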
Key:
Experiment in all cases: inhibition of tumour cell growth, NCI panel, 48 h
[1] = tested on: HCT-116 colon
[2] = tested on: HOP-92 NSCLC
[3] = tested on: HT29 colon
[4] = tested on: OVCAR-3 ovarian
[5] = tested on: OVCAR-5 ovarian
[6] = tested on: SF-295 CNS
[7] = tested on: SN12C renal
[8] = tested on: SW-620 colon
[9] = tested on: T-47D breast
[10] = tested on: M19-MEL melanoma

Compound	TGI [1] [µM]	TGI [2] [µM]	TGI [3] [µM]	TGI [4] [µM]	TGI [5] [µM]	TGI [6] [µM]	TGI [7] [µM]	TGI [8] [µM]	TGI [9] [µM]	GI50 [2] [µM]	GI50 [3] [µM]	GI50 [4] [µM]	GI50 [5] [µM]	GI50 [6] [µM]	GI50 [7] [µM]	GI50 [8] [µM]	GI50 [9] [µM]	TGI [10] [µM]	GI50 [1] [µM]	GI50 [10] [µM]
O=C1C[C@H](CCC(=O)OCc2ccccc2)NC(=O)C[C@H](CCC(=O)OCc2ccccc2)NC(=O)C[C@H](CCC(=O)OCc2ccccc2)N1	> 100	18.8	> 100	> 100	> 100	42.8	> 100	> 100	> 100	–	–	–	–	–	–	–	–	–	–	–
COc1cc2c(cc1OCCCN1CCN(c3ncnc4ccccc34)CC1)N=CC1CCCN1C2=O (stereo not drawn)	–	0.0529	–	0.0595	0.0717	0.0545	3.97	0.0556	0.0757	0.0199	0.0298	0.0269	0.0263	0.0258	0.0374	0.0198	0.0222	–	–	–
Fc1c(F)c(C(F)(F)F)c(F)c(F)c1N/N=C/c1cn(Cc2ccccc2)c2ccccc12	89.5	60.2	49.3	36.6	41.9	36.2	92	> 100	83.6	–	–	–	–	–	–	–	–	–	–	–
COc1ccc(C2C(C=O)C(N3CCN(C)CC3)=Nc3nc4ccccc4n32)cc1 (stereo not drawn)	29.8	24.3	36.8	40.5	59.7	50.9	40.9	65.9	40.6	–	–	–	–	–	–	–	–	–	–	–
O=S(O)c1cc(Cl)cc(Cl)c1OCc1ccccc1	> 100	–	> 100	> 100	> 100	–	> 100	–	–	–	–	–	–	–	–	–	–	> 100	–	–
CNC(=O)Nc1ccccc1	> 100	> 100	> 100	> 100	> 100	> 100	> 100	> 100	> 100	–	–	–	–	–	–	–	–	–	–	–
O=C(COc1ccc(Cl)cc1Cl)N/N=C/C=C/c1ccc([N+](=O)[O-])o1	–	–	> 100	> 100	> 100	> 100	> 100	> 100	> 100	–	–	–	–	–	–	–	–	–	–	–
C[N+](C)(CCO)CCN1c2ccccc2Sc2ccccc21	> 10	–	> 10	> 10	> 10	> 10	> 10	> 10	> 10	–	–	–	–	–	–	–	–	–	–	–
COc1ccc2nc3ccccc3c(NCc3ccc(C)cc3)c2c1	6.24	3.12	7.16	4.36	6.02	2.74	3.78	4.24	4.42	1.27	1.43	2	2.1	1.34	1.64	1.57	1.89	–	0.848	–
Clc1ccc(-c2nnc(-c3c(Cl)c(Cl)c(Cl)c(Cl)c3-c3nc4ccccc4[nH]3)o2)cc1	> 100	> 100	> 100	> 100	> 100	> 100	> 100	> 100	> 100	–	–	–	–	–	–	–	–	–	–	–
COc1cc2c(cc1OC)-c1cc3ccc(OC)c(OC)c3c[n+]1CC2	> 100	> 100	> 100	> 100	> 100	> 100	> 100	> 100	> 100	–	–	–	–	–	–	–	–	–	–	–
COc1ccc2c(c1)CC[C@@H]1[C@@H]2CC[C@]2(C)C(=O)/C(=C/c3ccc(O)c(OC)c3)C[C@@H]12	–	> 100	> 100	> 100	> 100	> 100	–	> 100	> 100	–	–	–	–	–	–	–	–	–	–	–
Cn1c(=O)c2c(nc(NCCNc3nc4c(c(=O)n(C)c(=O)n4C)n3C)n2C)n(C)c1=O	> 100	> 100	> 100	> 100	> 100	> 100	> 100	> 100	> 100	–	–	–	–	–	–	–	–	–	–	–
CCOC(=O)c1c(CN2CCCC2)n(-c2ccccc2)c2cc(Br)c(OC)cc12	26.5	33.2	24	61.2	45.7	30.4	> 100	73.9	38.6	–	–	–	–	–	–	–	–	–	–	–
N#C[S-].[Ce+3].c1cnc2c(c1)ccc1cccnc12.c1cnc2c(c1)ccc1cccnc12.c1cnc2c(c1)ccc1cccnc12	5.5	22.7	23.9	14.9	16.1	1.45	13.1	46.8	–	–	–	–	–	–	–	–	–	3.31	–	0.555
NC(CC(=O)O)(Cc1ccccc1)C(=O)O (stereo not drawn)	> 100	> 100	> 100	> 100	> 100	> 100	> 100	> 100	> 100	–	–	–	–	–	–	–	–	–	–	–
CC(=O)C1=C(O)CCC1=O	> 100	> 100	> 100	> 100	> 100	> 100	> 100	> 100	> 100	–	–	–	–	–	–	–	–	–	–	–
C[C@]12CCC(=O)C=C1CC[C@@H]1[C@@H]2[C@@H](O)C[C@@]2(C)[C@H]1CC[C@]2(O)C(=O)COC(=O)C1CCCC1	> 100	> 100	> 100	> 100	> 100	> 100	> 100	> 100	> 100	–	–	–	–	–	–	–	–	–	–	–
Cc1ccc(SSCCCCCS(=O)O)cc1	28.4	–	> 100	74.7	> 100	–	49	–	–	–	–	–	–	–	–	–	–	> 100	–	–
O=c1/c(=C/c2ccc([N+](=O)[O-])o2)sc2n1[C@@H](c1ccc3c(c1)OCO3)C=C(c1cc(F)c(Cl)cc1Cl)N=2	28	26.6	46	35.3	43.8	> 100	56.7	> 100	59.3	–	–	–	–	–	–	–	–	–	–	–
O=C(NNC(=O)c1nsc2ccccc12)c1ccc(Cl)cc1	39.2	32.8	41.8	36.6	46.4	–	33.7	> 100	–	–	–	–	–	–	–	–	–	39.1	–	–

— PubChem BioAssay (NCI)
